According to ChEMBL document CHEMBL3507680, “University of Dundee, Gates Library screen for HepG2 cell viability”:

Assay: Human HepG2 cell viability assay in 384 well format
Type: toxicity, cell-based
Set-up: dose 125 nL, time 70.5 hour; concentration not given beside the values
Details: HepG2 cells, read-out: Inhibition

Structure (SMILES)	cytotoxicity at 70.5 h [%]
COCC(=O)N1CC[C@@H]2CN(Cc3cccc(Cl)c3)S(=O)(=O)[C@@H]2CC1	24.3
COCCOCC(=O)NC(C#N)c1c(F)cccc1Cl (stereo unspecified)	20.7
Cc1ncsc1CN1CCC2(CC1)CC(=O)N(Cc1ccc(Cl)cc1)C2	-3.74
CN1CCC(N2CCCC(C(=O)N3Cc4ccccc4C3)C2)CC1 (stereo unspecified)	-14.7
CCn1ccnc1CN1CCC(N(C)Cc2ncc(C)o2)C1 (stereo unspecified)	20.1
Cc1ccc(N2C[C@H](C(=O)N3CCOCC3)[C@@H]3CCO[C@@H]3C2)nn1	-11.3
COCC(=O)N1CCCC1c1csc(Nc2cnccn2)n1 (stereo unspecified)	-10.2
Cc1nc(CNC(=O)CCN2CCN(c3ccccn3)CC2)oc1C	6.4
COc1ccc2c(c1)CCN2Cc1nc2c(cnn2C)c(=O)[nH]1	-9.79
COCc1cccc(C(=O)N2CCN(C3=NCC(C)(C)S3)CC2)c1	-3.27
Cc1cc(CN(C)C(=O)c2ccc(OC(C)C)nc2)no1	20
Cc1noc(CCCC(=O)NC(C)c2ccc(Cl)s2)n1 (stereo unspecified)	-7.88
Cc1cnn(CCNC(C)c2nnc(-c3cccc(Cl)c3)o2)c1 (stereo unspecified)	-6.22
CC(NC(=O)N1CCC1)c1ccc(S(N)(=O)=O)cc1 (stereo unspecified)	-7.27
Cc1cc(NC2CCc3ncnn3C2)n2nc(C(F)(F)F)nc2n1 (stereo unspecified)	-95.5
COc1ccccc1CN1C(=O)O[C@@H]2CN(Cc3cccc(C)n3)C[C@@H]21	20.9
Cc1ccccc1-n1c(C)cc(C(=O)N2CCn3c(C)nnc3C2)c1C	-1.44
c1ccc(C(Cn2cccn2)Nc2cnccn2)cc1 (stereo unspecified)	-12.5
O=C(NCC(F)(F)F)c1ccc(-n2cccn2)nn1	5.82
CC(=O)N1CCCC(C(=O)NCCc2ccc(F)c(Br)c2)C1 (stereo unspecified)	-9.08
Cc1ccc2nc(CN3CCC(O)(Cn4ccnc4)CC3)cc(O)c2c1	-7.59
Cc1cc(CC(=O)NCC(O)COc2ccc(F)c(F)c2)n[nH]1 (stereo unspecified)	17.8
Cc1nn(-c2ccccc2)c(C)c1CNC1CCc2ncnn2C1 (stereo unspecified)	1.33

Structure (SMILES)	cytotoxicity at 70.5 h [%]
COc1ccc(Oc2cccnc2)cc1CN1CCCC1	28.5
CCC(CN1CCCC1)n1cncc1-c1cnn(-c2ccc(F)cc2)c1 (stereo unspecified)	-5.95
CCOc1ncccc1NC(=O)NCC(O)c1ccc(OC)cc1 (stereo unspecified)	19.2
Cc1ccccc1CN1CCC(c2nn(CCN)c3nccnc23)C1 (stereo unspecified)	-0.306
O=C(NCc1cccnc1)C1=NOC2(CCN(C3CCOCC3)C2)C1 (stereo unspecified)	-11.3
CCC(=O)c1ccc(OCC(=O)N(C)C(C)c2ccon2)cc1 (stereo unspecified)	-13.2
Cc1c(CNS(=O)(=O)c2cccc(COC(C)C)c2)cnn1C	-5.71
CN1CCC2(COCCN(Cc3ccc4c(c3)OCO4)C2)C1 (stereo unspecified)	13.5
CCc1noc(CN(C)C(=O)COc2cc(Cl)cc(Cl)c2)n1	1.61
CCCNC(=O)c1ccc(-c2ccco2)[nH]c1=O	-2.1
CC(=O)N(C)c1nc(Cn2nnnc2C(C)(C)C)cs1	-4.99
CCc1noc(CS(=O)(=O)Cc2nc(Cc3ccccc3)no2)n1	-5.38
O=C1NC(c2cccnc2)=NC12CCN(CCCc1ccccc1)CC2	-8.89
Cc1cccc2nc(CNC(=O)N3CCC(N4CC=CC4)C3)cn12 (stereo unspecified)	-14.4
CC(C)n1c2ccccc2c2c1cc(C(=O)O)n2C(=O)N(C)C	-2.89
Cc1nc(CNC(=O)NC2CC(C)(C)OC2(C)C)sc1C (stereo unspecified)	-9.18
CN1CCC(c2nnc(CN3CCCCC3)n2C)CC1	-9.09
COc1cc(C(=O)N(C)C(C)Cc2cc(C)ccn2)ccn1 (stereo unspecified)	25.8
CCn1cc2c(n1)C(COCC1CC1)CN(C(=O)c1cc(C)on1)C2 (stereo unspecified)	-10.4
O=C(Nc1cnccn1)[C@@H]1COC[C@H]2CN(c3ncc(F)cn3)C[C@H]21	-4.35
O=C([C@H]1CCCO1)N1CC[C@H](O)[C@@H]1Cc1ccncc1	1.55
O=C(CCc1ccc(=O)[nH]n1)N1CCCC(COc2ccc(F)cc2)C1 (stereo unspecified)	-1.69
CCn1nc2c(cc1=O)CN(CC(=O)Nc1nnc(C)s1)CC2	-15

Structure (SMILES)	cytotoxicity at 70.5 h [%]
CC(=O)N(Cc1ccc(NCc2cnn(C(C)(C)C)c2)cc1)C(C)C	-3.55
CCCC1(CO)CCCN(Cc2nccs2)C1 (stereo unspecified)	-4.2
O=C1CSc2ccc(C(=O)N3CCCC(n4ccnc4)C3)cc2N1 (stereo unspecified)	-1.51
CN(CCNC(=O)c1ccnc(-n2ccnc2)c1)C1CC1	-1.87
O=C(O)c1nc(SCc2ccc(F)cc2)ncc1Br	-7.86
O=C(O)c1cnc(N2CC[C@H](N3CCOCC3)[C@H](CCCO)C2)c(Cl)c1	-7.02
CC(=O)Nc1ccc(C(=O)Nc2cnc3n2CCCC3)cc1C	5.91
CC(C)c1ncc2c(n1)CN(Cc1ccc3c(c1)OCCO3)CC2	12.6
CC(C)c1nnc2n1CCN(CC(=O)Nc1sccc1C#N)C2	13.5
CC(=O)N1CCCC(C(=O)N2CCN(c3cnn(C)c(=O)c3)CC2)C1 (stereo unspecified)	9.66
c1cc(CNCC2OCCc3cn(CC4CC4)nc32)cs1 (stereo unspecified)	-4.34
CN(C(=O)Nc1ccncc1)C1CCN(c2ccccc2)C1=O (stereo unspecified)	-11.8
CNC(=O)COC(=O)c1cccc(-n2ccc(C(F)(F)F)n2)c1	0.44
CC(=O)Nc1ccc(OCc2noc(C(=O)N3CCCCC3)n2)cc1	-18.1
O=C([C@H]1C[C@@H]2CCN(c3cccc(F)c3)C[C@H]2O1)N1CCCC1	-14.2
Cc1cnn(CC(=O)NC2CCCc3cc(OC(F)F)ccc32)c1 (stereo unspecified)	-6.6
COc1cccc(CNC(=O)N2CCN3CCNC(=O)C3C2)c1 (stereo unspecified)	-10.4
O=C(Cn1ccnc1)N1C[C@@H]2CC[C@H](Oc3ccc(Cl)cc3)[C@@H]2C1	0.299
Cc1cnn(C2CCCN(C(=O)c3cc[nH]n3)C2)c1 (stereo unspecified)	-5.43
COCCNC(=O)C1CN(Cc2ccncc2)Cc2ccnn2C1 (stereo unspecified)	-14.1
CC(=O)N1CCCC2(C1)CN(c1nncs1)CCO2 (stereo unspecified)	-4.62
Cc1cc(C(=O)N2CCCC(N3CCCCCC3)C2)nn1C(C)(C)C (stereo unspecified)	16.8
CCCc1nnc(N2CCN(c3ccccc3Cl)CC2)o1	-0.178

Structure (SMILES)	cytotoxicity at 70.5 h [%]
CC(=O)N[C@@H]1Cc2ccccc2[C@H]1Nc1cc(C2CC2)ncn1	7.02
CC(C)c1cc(C(=O)N2Cc3ccccc3CC2C(=O)O)nn1C (stereo unspecified)	-2.03
O=C(NC1CC1)[C@@H]1CCO[C@@H]2CCN(CC3CCC3)C[C@@H]21	-11.4
CCOC(=O)[C@H]1CNC[C@@H]1C(F)(F)F	-11.1
Cn1c(CN2CCOCC2)nnc1C1CCCN(CC(N)=O)C1 (stereo unspecified)	3.41
Cc1[nH]c(=O)[nH]c(=O)c1CC(=O)N1CCC(Oc2ccc(F)cc2)CC1	-12.2
c1ccc2sc(N3CCN(c4ncnc5c4CCC5)CC3)nc2c1	13.8
CC(C)(C)C(CCO)NC(=O)Nc1ccccc1 (stereo unspecified)	-9.49
O=C(CCCc1ccccn1)N1CCCC1c1noc(C2CC2)n1 (stereo unspecified)	-9.72
C[C@@H]1C[C@H]2CN(Cc3nccs3)C[C@H]2O1	-10.9
CCn1ncc(C(=O)NCCc2nc(-c3cccnc3)n[nH]2)c1C	-3.1
Cc1cnn(CC2CCCN2C(=O)c2ccc(F)c(F)c2)c1 (stereo unspecified)	-0.479
Cc1nn(C)c2nc(-c3ccccn3)nc(NCCC3CCCN3C)c12 (stereo unspecified)	1.37
Cc1cccc(COC[C@@]23CCC[C@@H]2CN(C(=O)Cc2ccco2)C3)n1	-8.53
Cc1cccc(CN2CCS(=O)(=O)[C@@H]3CCN(S(C)(=O)=O)CC[C@@H]32)n1	17.2
O=C(NCCc1cccc(F)c1)c1nc2c(s1)CCCN2C(=O)C1CC1	-5.89
CC(c1nc(C2CC2)no1)N1CCc2c(ncn2C2CC2)C1 (stereo unspecified)	-7.1
COCCN1CCC(C(=O)c2cc(F)ccc2F)CC1	-2.7
Oc1nc(N2CCOCC2)nc2c1CCN(Cc1ccc(F)cc1)CC2	-2.02
CSCc1nc(CCNC(=O)c2cnn(C(C)C)c2)cs1	-1.66
CC(=O)N1CCCC1c1ccc(CN2CCOCC2)cn1 (stereo unspecified)	16.7
COCCN1C[C@H]2CCN(C(=O)c3cc(C)on3)CC[C@H]2S1(=O)=O	-5.47
CCS(=O)(=O)N1CCO[C@H]2[C@H](Oc3ncccc3F)CC[C@@H]21	-11.9

Structure (SMILES)	cytotoxicity at 70.5 h [%]
Cn1ccnc1CN1CCCN(C(=O)COC2CCCCC2)CC1	22.3
C/C=C(\C)CN1C[C@H](NC(=O)c2cnc(O)cn2)C[C@H]1C(=O)NCC	-9.9
Cc1nc(CN2CCN(C(=O)c3ccn(C)c(=O)c3)CC2)cs1	7.44
CCN(CC)C(=O)c1nc2c(s1)CCN(C(=O)Nc1ccccc1)CC2	5.97
Cc1ccn(-c2ccnc(N3CCSCC3)n2)n1	-0.283
O=C1CCCC2=C1C(c1ccc(F)cc1F)Nc1nonc1N2 (stereo unspecified)	12.1
Cc1ccc(C(=O)NCCCN2CCOCC2)c(Cl)c1	-6.07
COCCn1cc2c(n1)C(CNC(=O)c1cc(C)[nH]c1C)OCC2 (stereo unspecified)	-2.66
CNc1cc(CCNC(=O)C2CCCC2)nc(-c2ccccn2)n1	-8.09
CSCCCN1C[C@H](NC(=O)c2cc(C3CC3)on2)[C@@H](C2CC2)C1	-7.58
O=C(NCc1nnc2ccccn12)N1CCc2sccc2C1	-21.7
COc1cccc(CN2CCCCC2CN2CCOCC2)c1F (stereo unspecified)	-2.15
CCNc1ncc(CN2C[C@H]3CC[C@@H]2CN(C(=O)C2CCC2)C3)cn1	-7.7
Cc1nc(N2CCOc3ccc(CO)cc3C2)c2c(C)noc2n1	-2.39
CCCNC(=O)c1cc2c(s1)CCN2C(=O)c1ccccc1	14.2
CN(CCCc1n[nH]c(N)c1C#N)C(=O)Nc1cc(Cl)cc(Cl)c1	-11.9
Nc1nccnc1CC1CCCN(Cc2ccnc3ccccc23)C1 (stereo unspecified)	27.7
OC1CCN(Cc2ccc(CNc3ccc(Cl)cn3)cc2)CC1	-0.577
Cc1ccc(CN2CCCC(c3nnc(CN4CCCC4)n3C)C2)s1 (stereo unspecified)	-0.483
